Our source for the IC50 values is patent US20200405696A1, “INHIBITORS OF INDOLEAMINE 2,3-DIOXYGENASE AND/OR TRYPTOPHAN 2,3-DIOXYGENASE” (IDORSIA PHARMACEUTICALS LTD, priority 2018, published 2020).

Structures are written as SMILES.

Assay [1] has as its target T1, Recombinant full-length human IDO1 (Homo sapiens, UniProt P14902).
T1 construct: Recombinant full-length human IDO1 with a N-terminal hexahistidine tag; hexahistidine (His6) (N); made in house; host or cells: E. coli
Description: IDO1 enzymatic assay (NFK quantified by LCMS). The assay is classed as biochemical. As to conditions: 2 nM enzyme, 5 μM L-tryptophan, pH6.5, 30 minutes pre-incubation at RT; mean values when measured multiple times; read-out: hIDO activity (IC50 in nM). The protocol:
1) Testing Compounds for IDO Inhibitory Activity in an IDO1 Enzymatic Assay:
Recombinant full-length human IDO1 with a N-terminal hexahistidine tag expressed in E. coli and purified to homogeneity is incubated at a final concentration of 2 nM in assay buffer consisting of 37.5 mM phosphate buffer at pH6.5 supplemented with 10 mM ascorbic acid, 0.45 μM methylene blue, 50U/ml catalase, 0.01% BSA, and 0.01% Tween 20 (protocol modified from Seegers et al, JBS 2014). Example compounds are serially diluted in DMSO, further diluted in phosphate buffer, and added to the enzyme at final concentrations ranging from 10 μM to 0.5 nM. The final DMSO concentration is 0.6%. Following a pre-incubation of 30 minutes at RT, the reaction is started by the addition of L-tryptophan at a final concentration of 5 μM in assay buffer. After 30 minutes of incubation at RT, 3 μL of the 20 μl reaction mixture are transferred to a 384 deep well plate containing 25 μL of deionized water. 100 μl of 200 nM L-Tryptophan-(indole-d5) in cold 100% methanol are added followed by a 10 minutes centrifugation at 3220×g at 4° C. An additional 75 μL of deionized water are then added followed by a 10 minutes centrifugation at 3220×g at 4° C. The product of the reaction N′-Formylkynurenine (NFK) is quantified by LCMS and normalized to the L-Tryptophan-(indole-d5) signal. Samples with 0.6% DMSO (0% effect) and a TDO/IDO inhibitor (100% effect) are used as control samples to set the parameters for the non-linear regression necessary for the determination of the half-maximal inhibitory concentration (IC50) for each compound. For each compound concentration the percentage of activity compared to 0% and 100% effect is calculated as average±STDEV (each concentration measured in duplicate). IC50 values and curves are generated with XLfit software (IDBS) using Dose-Response One Site model 203 (four parameter logistic curve model). The calculated IC50 values may fluctuate depending on the daily assay performance. Fluctuations of this kind are known to those skilled in the art. When compounds are measured multiple times, mean values are given.

In assay [2] the target is T2, Recombinant human TDO comprising amino acids 19-407 (Homo sapiens, UniProt P48775).
T2 construct: Recombinant human TDO comprising amino acids 19-407 with a N-terminal hexahistidine tag; hexahistidine (His6) (N); made in house; host or cells: E. coli
T2 sequence (P48775 19-406 limits assumed): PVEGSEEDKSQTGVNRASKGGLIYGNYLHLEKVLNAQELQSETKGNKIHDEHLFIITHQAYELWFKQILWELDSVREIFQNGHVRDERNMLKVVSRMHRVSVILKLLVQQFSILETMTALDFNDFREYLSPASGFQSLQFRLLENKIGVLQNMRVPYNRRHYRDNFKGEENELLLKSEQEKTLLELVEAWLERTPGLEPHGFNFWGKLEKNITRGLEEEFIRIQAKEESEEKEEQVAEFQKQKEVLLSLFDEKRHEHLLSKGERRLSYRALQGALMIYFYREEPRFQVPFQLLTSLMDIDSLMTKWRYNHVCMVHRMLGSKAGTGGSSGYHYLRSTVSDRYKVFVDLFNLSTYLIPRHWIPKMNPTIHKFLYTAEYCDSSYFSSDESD
Description: TDO2 enzymatic assay (NFK quantified by LCMS). The assay is classed as biochemical. Particulars: 15 nM enzyme, 200 μM L-tryptophan, pH7, 30 minutes pre-incubation at RT; mean values when measured multiple times; read-out: hTDO activity (IC50 in nM). The protocol: 2) Testing Compounds for TDO Inhibitory Activity in a TDO2 Enzymatic Assay:
Recombinant human TDO comprising amino acids 19-407 with a N-terminal hexahistidine tag expressed in E. coli and purified to homogeneity is incubated at a final concentration of 15 nM in assay buffer consisting of 75 mM phosphate buffer at pH7 supplemented with 100 μM ascorbic acid, 50U/ml Catalase, 0.01% BSA, and 0.01% Tween 20 (protocol modified from Seegers et al, JBS 2014). Example compounds are serially diluted in DMSO, further diluted in phosphate buffer, and added to the reaction mixture at final concentrations ranging from 10 μM to 0.5 nM. The final DMSO concentration is 0.6%. Following a pre-incubation of 30 minutes at RT, the reaction is started by the addition of L-tryptophan at a final concentration of 200 μM in assay buffer. After 30 minutes of incubation at RT, 3 μL of the reaction mixture are transferred to a 384 deep well plate containing 25 μL of deionized water. 100 μl of 200 nM L-Tryptophan-(indole-d5) in cold 100% methanol are added followed by a 10 minutes centrifugation at 3220×g at 4° C. An additional 75 μL of deionized water are then added followed by a 10 minutes centrifugation at 3220×g at 4° C. The product of the reaction N′-Formylkynurenine (NFK) is quantified by LCMS and normalized to the L-Tryptophan-(indole-d5) signal. Samples with 0.6% DMSO (0% effect) and a TDO/IDO inhibitor (100% effect) are used as control samples to set the parameters for the non-linear regression necessary for the determination of the half-maximal inhibitory concentration (IC50) for each compound. For each compound concentration the percentage of activity compared to 0% and 100% effect is calculated as average±STDEV (each concentration measured in duplicate). IC50 values and curves are generated with XLfit software (IDBS) using Dose-Response One Site model 203 (four parameter logistic curve model). The calculated IC50 values may fluctuate depending on the daily assay performance. Fluctuations of this kind are known to those skilled in the art. When compounds are measured multiple times, mean values are given.

By IC50 is commonly meant the point on the concentration scale where inhibition reaches its midpoint.

T1 sequence (P14902 whole entry): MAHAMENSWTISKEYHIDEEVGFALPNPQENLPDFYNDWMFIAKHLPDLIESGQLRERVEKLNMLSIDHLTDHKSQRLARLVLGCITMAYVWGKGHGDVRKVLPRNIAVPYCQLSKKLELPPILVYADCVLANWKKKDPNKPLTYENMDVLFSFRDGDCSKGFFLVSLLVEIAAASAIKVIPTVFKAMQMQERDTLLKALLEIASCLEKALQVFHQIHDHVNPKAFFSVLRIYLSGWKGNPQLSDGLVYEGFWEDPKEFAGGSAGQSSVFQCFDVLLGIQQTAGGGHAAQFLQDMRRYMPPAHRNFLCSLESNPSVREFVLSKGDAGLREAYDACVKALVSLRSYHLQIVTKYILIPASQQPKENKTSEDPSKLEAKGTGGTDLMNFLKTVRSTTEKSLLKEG

For `Oc1ccc(-n2cc(C(O)c3c(C4CC4)sc4cncn34)nn2)c(Cl)c1` (racemic) [Example 212, rac-3-Chloro-4-{4-[(2-cyclopropyl-imidazo[5,1-b]thiazol-3-yl)-hydroxy-methyl]-[1,2,3]triazol-1-yl}-phenol], the IC50 in assay [1] is 10.5 nM; in assay [2] it was 6190 nM.
For `OC(c1cn(-c2ccc(OCC(F)(F)F)nc2)nn1)c1c(C2CC2)sc2cncn12` (racemic) [Example 78, rac-(2-Cyclopropyl-imidazo[5,1-b]thiazol-3-yl)-{1-[6-(2,2,2-trifluoro-ethoxy)-pyridin-3-yl]-1H-[1,2,3]triazol-4-yl}-methanol], in that order: 17.4 nM and over 10200 nM.
For the molecule `C=CCNC(=O)c1ccc(-n2cc(C(O)c3c(CC)sc4cncn34)nn2)cc1` (racemic) [Example 129, rac-N-Allyl-4-{4-[(2-ethyl-imidazo[5,1-b]thiazol-3-yl)-hydroxy-methyl]-[1,2,3]triazol-1-yl}-benzamide], the IC50 in assay [1] was 9.29 nM; in assay [2] it was 9780 nM.
The corresponding values for `CCc1sc2cncn2c1C(O)c1cn(-c2ccc3c(c2)C(C)NS3(=O)=O)nn1` (centres unmarked) [Example 227, (2-Ethyl-imidazo[5,1-b]thiazol-3-yl)-[1-(3-methyl-1,1-dioxo-2,3-dihydro-1H-1I6-benzo[d]isothiazol-5-yl)-1H-[1,2,3]triazol-4-yl]-methanol] are 77.8 nM and over 10200 nM.
The corresponding values for `COc1ccc(-n2nnc(C(O)c3c(C)sc4cncn34)c2C)cc1` (racemic) [Example 255, rac-[1-(4-Methoxy-phenyl)-5-methyl-1H-[1,2,3]triazol-4-yl]-(2-methyl-imidazo[5,1-b]thiazol-3-yl)-methanol] are 14.2 nM and 6940 nM.
The corresponding values for `CCc1sc2cncn2c1C(O)c1cn(-c2ccc(OCC3CC3)cc2)nn1` (racemic) [Example 54, rac-[1-(4-Cyclopropylmethoxy-phenyl)-1H-[1,2,3]triazol-4-yl]-(2-ethyl-imidazo[5,1-b]thiazol-3-yl)-methanol] are 12.3 nM and over 10200 nM.
Regarding `O=C(NC1CC1)c1ccc(-n2cc(C(O)c3c(C4CC4)sc4cncn34)nn2)cc1` (racemic) [Example 105, rac-N-Cyclopropyl-4-{4-[(2-cyclopropyl-imidazo[5,1-b]thiazol-3-yl)-hydroxy-methyl]-[1,2,3]triazol-1-yl}-benzamide], the concentration for half-maximal inhibition (IC50) in assay [1] is 22.1 nM; in assay [2], over 10200 nM.
Consider `COC(=O)Nc1ccc(-n2cc(C(O)c3c(C4CC4)sc4cncn34)nn2)cc1` (racemic) [Example 36, rac-(4-{4-[(2-Cyclopropyl-imidazo[5,1-b]thiazol-3-yl)-hydroxy-methyl]-[1,2,3]triazol-1-yl}-phenyl)-carbamic Acid Methyl Ester], for which the IC50 in assay [1] worked out at 11.1 nM; in assay [2], 8520 nM.
As to `CCNS(=O)(=O)c1ccc(-n2cc(C(O)c3c(CC)sc4cncn34)nn2)cc1` (racemic) [Example 244, rac-N-Ethyl-4-{4-[(2-ethyl-imidazo[5,1-b]thiazol-3-yl)-hydroxy-methyl]-[1,2,3]triazol-1-yl}-benzenesulfonamide], the IC50 in assay [1] is 47.2 nM; in assay [2] it was over 10200 nM.
`O=C(NCCCO)c1ccc(-n2cc(C(O)c3c(C4CC4)sc4cncn34)nn2)cc1` (racemic) [Example 184, rac-4-{4-[(2-Cyclopropyl-imidazo[5,1-b]thiazol-3-yl)-hydroxy-methyl]-[1,2,3]triazol-1-yl}-N-(3-hydroxy-propyl)-benzamide]: the IC50 in assay [1] is 14.5 nM; in assay [2] it was over 10200 nM.
The corresponding values for `O[C@@H](c1cn(-c2ccc(OCC3CCOCC3)cc2)nn1)c1c(C2CC2)sc2cncn12` [Example 87a, (R)-(2-Cyclopropyl-imidazo[5,1-b]thiazol-3-yl)-{1-[4-(tetrahydro-pyran-4-ylmethoxy)-phenyl]-1H-[1,2,3]triazol-4-yl}-methanol] are 4.55 nM and over 10200 nM.
For `CCc1sc2cncn2c1C(O)c1cn(-c2ccc(C(=O)NC)cc2)nn1` (racemic) [Example 111, rac-4-{4-[(2-Ethyl-imidazo[5,1-b]thiazol-3-yl)-hydroxy-methyl]-[1,2,3]triazol-1-yl}-N-methyl-benzamide], in that order: 28.8 nM and over 10200 nM.
For `CCc1sc2cncn2c1C(O)c1cn(-c2ccc(C(=O)NCCCO)cc2)nn1` (racemic) [Example 115, rac-4-{4-[(2-Ethyl-imidazo[5,1-b]thiazol-3-yl)-hydroxy-methyl]-[1,2,3]triazol-1-yl}-N-(3-hydroxy-propyl)-benzamide], the IC50 in assay [1] was 12.7 nM; in assay [2], over 10200 nM.
The corresponding values for `COc1ccc(-n2cc([C@H](O)c3c(C4CC4)sc4cncn34)nn2)cc1` [Example 9a, (R)-(2-Cyclopropyl-imidazo[5,1-b]thiazol-3-yl)-[1-(4-methoxy-phenyl)-1H-[1,2,3]triazol-4-yl]-methanol] are 5.98 nM and over 10200 nM.
As for `CCCC=Cc1sc2cncn2c1C(O)c1cn(-c2ccc(OC)cc2)nn1` (racemic) [Example 271, rac-[1-(4-Methoxy-phenyl)-1H-[1,2,3]triazol-4-yl]-[((E)-2-(pent-1-enyl))-imidazo[5,1-b]thiazol-3-yl]-methanol], the IC50 in assay [1] was 225 nM; in assay [2], over 10200 nM.
Consider `OC(c1ccc(-c2cccnc2)s1)c1c(C2CC2)sc2cncn12` (racemic) [Example 160, rac-(2-Cyclopropyl-imidazo[5,1-b]thiazol-3-yl)-(5-pyridin-3-yl-thiophen-2-yl)-methanol], for which the IC50 in assay [1] was 230 nM; in assay [2] it was 5320 nM.
The corresponding values for `Cc1sc2cncn2c1C(O)c1cn(-c2cccc(C#N)c2)nn1` (racemic) [Example 60, rac-3-{4-[Hydroxy-(2-methyl-imidazo[5,1-b]thiazol-3-yl)-methyl]-[1,2,3]triazol-1-yl}-benzonitrile] are 294 nM and over 10200 nM.
For `N#Cc1ccc(-n2cc(C(O)c3c(C4CC4)sc4cncn34)nn2)cc1O` (racemic) [Example 233, rac-4-{4-[(2-Cyclopropyl-imidazo[5,1-b]thiazol-3-yl)-hydroxy-methyl]-[1,2,3]triazol-1-yl}-2-hydroxy-benzonitrile], in that order: 20.3 nM and over 10200 nM.
The corresponding values for `COc1ncc(-n2cc(C(O)c3c(C4CC4)sc4cncn34)nn2)cn1` (racemic) [Example 67, rac-(2-Cyclopropyl-imidazo[5,1-b]thiazol-3-yl)-[1-(2-methoxy-pyrimidin-5-yl)-1H-[1,2,3]triazol-4-yl]-methanol] are 50.2 nM and 9160 nM.
